Laboratory results published in US20240099295A1, “CELL TREATMENT AGENT” (AYA Inc., priority 2021, published 2024).

Key:
Format in all cases: cell-based
[1] = tested on: Chinese hamster fibroblast; test: Cell protective effect: cell survival during preservation (trypan blue excretion test); conditions: Chinese hamster fibroblasts; same preservation experiments; values not given
Procedure: Using a normal serum-free cell culture solution without FBS or a Ringer's solution (Otsuka Pharmaceutical Co., Ltd., Lactec Injection, Japanese Pharmacopoeia, Sodium L-lactate Ringer's solution) as a conditioning solution for use, for example, in preservation and transportation of cells, sodium alginate (Na alginate) (Fuji Chemical Industry Co., Ltd. Snow Algin SSL, viscosity of 1% aqueous solution is 30 mPa·s at 20° C.) was added to the conditioning solution in the concentrations shown in Table 1 to prepare cell preservation solutions. To each cell preservation solution, the above-described cells were added at a concentration of 10^6 cells/ml to satisfy the conditions shown in Table 1, and the resultant solution was left to stand in a room at normal temperature (22° C.) for 24 hours, and then whether cells were alive or dead was determined, and rates of viable cells (average survival rate (%)) were calculated and compared. Cell viability was determined by the trypan blue excretion test that is the ordinary method of confirming cell viability. The excretion test was performed according to the method described in “Denizot F., et al., Rapid colorimetric assay for cell growth and survival. Modifications to the tetrazolium dye procedure giving improved sensitivity and reliability. J. Immunol. Methods, 89, 271-277 (1986)”. The results are of N=4.
The average survival rate (%) was determined in the same manner as in Experimental Example (1-1-1) except that the preservation conditions were changed to leaving still for 72 hours in a refrigerator at a set temperature of 4° C. The results are of N=4.

[2] = tested on: Rat corneal epithelial cell; test: Cell detaching and suspending effect under gentle shaking (Experimental Example 5); conditions: cell culture solution containing 10% FBS, 37° C.
Procedure: In the same manner as in Experimental Example 4, rat corneal epithelial cells were sufficiently adhered to the culture dish wall which is a scaffold.
To the culture solutions in the culture dish on which cultured cells obtained in the manner as described above had adhered, each active ingredient was added in a concentration shown in Table 14, or no active ingredient was added. Each culture dish was then placed on the base of a shaker (product name: Laboshaker Model BC-740, available from BIO CRAFT Corporation), the shaking intensity was set to the lowest level, and the shaking frequency was set to 4 times/min, and cells were cultured under normal cell culture conditions (37° C., CO2 concentration of 5%, humidity of 100%) for 24 hours while each culture dish was gently shaken. Then, detachment and suspension of cells after 24 hours of culturing was observed. For determination of detachment and suspension, whether cells were detached from the dish wall and suspended under shaking of the culture dish was observed, and the case where 90% or more of the cells were detached and suspended was determined as “detached and suspended”, and “detached and suspended” cells were marked with “∘” and “undetached and unsuspended” cells were marked with “x”. The results are of N=4.

[3] = tested on: Rat corneal epithelial cell; test: Cell dormancy effect: cell cycle analysis by flow cytometry; conditions: serum-free cell culture solution, cultured 48 hours at 37° C.
Procedure: Sodium alginate (sodium alginate first grade reagent, available from FUJIFILM Wako Pure Chemical Corporation, viscosity of 1% aqueous solution is 120 mPa·s at 20° C.), DS (the same as in Experimental Example 1), or sodium heparin (the same as in Experimental Example 1) was used as an active ingredient in the cell treatment agent, and whether cell dormancy occurs or not by action of the active ingredient was examined by comparing the activities of cell division and proliferation which are the most general cell activities in the following manner.
The cell cycle was analyzed by flow cytometry according to the method described in known literature (Piotr Pozarowski and Zbigniew Darzynkiewicz, “Analysis of Cell Cycle by Flow Cytometry,” Methods in Molecular Biology, vol. 281: Checkpoint Controls and Cancer, Volume 2), and frequency of cell division and proliferation was compared between different active ingredients of the cell treatment agent. A specific method is as follows. Using a normal serum-free cell culture solution as a conditioning solution (comparison reference (a)), (b) a cell preservation solution in which sodium alginate (Na alginate) is added to the conditioning solution in a concentration of 2.5 mg/ml, (c) a cell preservation solution in which DS is added to the conditioning solution in a concentration of 0.1 mg/ml, and (d) a cell preservation solution in which heparin sodium (heparin Na) is added to the conditioning solution in a concentration of 50 units/ml, were prepared. To these cell preservation solutions, rat corneal epithelial cells were added at a cell concentration of 10^5 cells/ml and cultured for 48 hours under normal cell culture conditions (37° C., CO2 concentration of 5%, humidity of 100%). The number of cells in each culture was determined by cell cycle analysis using flow cytometry to determine the number of cells in each cell cycle, and the percentage of cells in the S phase, G2 phase, and M phase, which are considered as the periods of the cell division and proliferation process, was compared with the percentage of cells in the G0 phase and G1 phase, which are considered as other periods. The results are of N=4.

dextran sulfate [DS]
Effect of improving cell viability (cell protective effect) [1]: the cell protective effect was also observed
Detachment at lapse of 24 hours after addition of active ingredient ([2]; DS 0.5 mg/mL): ∘ (“detached and suspended” cells were marked with “∘”)
Percentages of cells of each cell cycle: G0 phase + G1 phase ([3]; DS 0.1 mg/mL): 92.4%
Percentages of cells of each cell cycle: S phase + G2 phase + M phase ([3]; DS 0.1 mg/mL): 5.77%

heparin sodium [Heparin Na, reference compound]
Effect of improving cell viability (cell protective effect) [1]: the cell protective effect was also observed
Detachment at lapse of 24 hours after addition of active ingredient ([2]; Heparin Na 100 units/mL): ∘ (“detached and suspended” cells were marked with “∘”)
Percentages of cells of each cell cycle: G0 phase + G1 phase ([3]; Heparin Na 50 units/mL): 89.7%
Percentages of cells of each cell cycle: S phase + G2 phase + M phase ([3]; Heparin Na 50 units/mL): 7.68%
